From US8524755B2 (priority 2009, dated 2013)

Legend:
PDE3A (h) = molecular target: T1, PDE3A (h) (Homo sapiens, UniProt Q14432); assay: Enzyme assay PDE3A (h); format: biochemical; conditions: read-out: % Inhibition of Control Values @ 10 μM
T1 construct: host or cells: Sf9 cells
Excerpt: (§1) The enzyme assays provided below will be familiar to those skilled in the art.
(§2) Analysis and Expression of Results: The results are expressed as a percent of control specific activity ((measured specific activity/control specific activity)×100) obtained in the presence of the test compounds.

[1] = molecular target: T2, Cholecystokinin CCK2 (CCKB) (h) (Homo sapiens, UniProt P32239); assay: Binding CCK2 (CCKB) (h) (ag); conditions: read-out: % Inhibition of Control Specific Binding @ 10 μM
T2 construct: expressed in transfected cells; host or cells: CHO cells
T2 sequence (P32239 1-447): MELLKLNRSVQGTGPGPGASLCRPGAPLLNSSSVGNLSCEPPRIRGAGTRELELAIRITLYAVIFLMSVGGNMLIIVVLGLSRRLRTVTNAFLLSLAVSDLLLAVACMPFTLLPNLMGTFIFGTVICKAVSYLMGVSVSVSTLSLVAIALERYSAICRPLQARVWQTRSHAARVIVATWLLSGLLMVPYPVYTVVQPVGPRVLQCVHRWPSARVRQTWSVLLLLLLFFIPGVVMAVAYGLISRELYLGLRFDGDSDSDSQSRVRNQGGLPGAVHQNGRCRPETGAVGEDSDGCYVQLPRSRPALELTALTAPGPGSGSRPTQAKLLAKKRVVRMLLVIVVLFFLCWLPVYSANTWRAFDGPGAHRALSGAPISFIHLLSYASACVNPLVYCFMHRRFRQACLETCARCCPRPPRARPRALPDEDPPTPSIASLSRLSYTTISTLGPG
Experimental: (§3) Radioligand binding assay methods utilized to measure the activity of compounds of the invention will be familiar to those skilled in the art. In each assay case, the assay components such as, for example, the cell-type, ligand, reference compound and the like, will be familiar to practitioners of such an assay.
(§4) Analysis and Expression of Results: Compounds of the invention were tested in the biochemical assays and percent inhibition of specific binding was determined. The specific ligand binding to the receptors is defined as the difference between the total binding and the nonspecific binding determined in the presence of an excess of unlabelled ligand. The results are expressed as a percent inhibition of control specific binding (100−((measured specific binding/control specific binding)×100)) obtained in the presence of test compounds.

guanylyl cyclase (basal) = molecular target: T3, guanylyl cyclase (basal) (Bos taurus, UniProt P16068+P19687); assay: Enzyme assay guanylyl cyclase (basal); format: biochemical, bovine
T3 construct: bovine lung; from tissue; host or cells: bovine lung
T3 sequence (P19687 1-691): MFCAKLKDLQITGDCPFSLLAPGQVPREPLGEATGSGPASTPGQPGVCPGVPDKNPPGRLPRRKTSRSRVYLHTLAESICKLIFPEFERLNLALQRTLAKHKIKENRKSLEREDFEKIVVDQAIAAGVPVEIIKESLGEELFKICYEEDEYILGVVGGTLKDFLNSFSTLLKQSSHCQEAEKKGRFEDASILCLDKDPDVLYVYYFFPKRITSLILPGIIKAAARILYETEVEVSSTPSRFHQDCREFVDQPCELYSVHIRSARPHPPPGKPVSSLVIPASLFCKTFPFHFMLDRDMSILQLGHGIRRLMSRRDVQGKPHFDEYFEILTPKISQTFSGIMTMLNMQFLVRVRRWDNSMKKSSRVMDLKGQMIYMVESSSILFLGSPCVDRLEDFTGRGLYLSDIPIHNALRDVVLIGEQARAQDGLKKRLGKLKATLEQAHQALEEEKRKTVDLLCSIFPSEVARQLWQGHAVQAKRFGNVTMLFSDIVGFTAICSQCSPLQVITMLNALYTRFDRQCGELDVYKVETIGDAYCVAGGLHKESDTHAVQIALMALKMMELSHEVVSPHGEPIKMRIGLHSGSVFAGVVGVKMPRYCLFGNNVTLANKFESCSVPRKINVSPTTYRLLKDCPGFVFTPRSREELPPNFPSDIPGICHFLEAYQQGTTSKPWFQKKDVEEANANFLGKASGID
T3 sequence (P16068 1-619): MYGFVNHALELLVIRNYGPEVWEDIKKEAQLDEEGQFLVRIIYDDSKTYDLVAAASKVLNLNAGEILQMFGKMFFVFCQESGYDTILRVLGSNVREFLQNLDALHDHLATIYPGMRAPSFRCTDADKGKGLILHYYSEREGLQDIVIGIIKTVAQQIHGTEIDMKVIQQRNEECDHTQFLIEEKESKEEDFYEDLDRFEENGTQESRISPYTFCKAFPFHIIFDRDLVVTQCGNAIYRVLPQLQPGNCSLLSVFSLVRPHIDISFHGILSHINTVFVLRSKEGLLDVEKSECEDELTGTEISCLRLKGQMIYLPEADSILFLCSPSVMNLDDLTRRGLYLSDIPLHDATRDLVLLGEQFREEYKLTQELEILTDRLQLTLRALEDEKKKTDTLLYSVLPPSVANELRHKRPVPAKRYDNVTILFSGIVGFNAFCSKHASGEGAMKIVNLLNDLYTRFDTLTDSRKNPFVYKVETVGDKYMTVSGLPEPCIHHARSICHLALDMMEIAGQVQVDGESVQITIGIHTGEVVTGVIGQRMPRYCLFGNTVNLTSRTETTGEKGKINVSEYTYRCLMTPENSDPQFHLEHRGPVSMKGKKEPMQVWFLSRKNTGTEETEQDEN
Excerpt: as §1, §2

[2] = tested on: Ca^2+ channel (L, verapamil site) (phenylalkylamine); assay: Binding Ca2+ channel (L, verapamil site) (aa); set-up: species or system rat
Experimental: as §3, §4

dopamine transporter (h) = molecular target: T4, dopamine transporter (h) (Homo sapiens, UniProt Q01959); assay: Binding dopamine transporter (h) (aa); conditions: read-out: % Inhibition of Control Specific Binding @ 10 μM
T4 construct: expressed in transfected cells; host or cells: CHO cells
T4 sequence (Q01959 whole entry): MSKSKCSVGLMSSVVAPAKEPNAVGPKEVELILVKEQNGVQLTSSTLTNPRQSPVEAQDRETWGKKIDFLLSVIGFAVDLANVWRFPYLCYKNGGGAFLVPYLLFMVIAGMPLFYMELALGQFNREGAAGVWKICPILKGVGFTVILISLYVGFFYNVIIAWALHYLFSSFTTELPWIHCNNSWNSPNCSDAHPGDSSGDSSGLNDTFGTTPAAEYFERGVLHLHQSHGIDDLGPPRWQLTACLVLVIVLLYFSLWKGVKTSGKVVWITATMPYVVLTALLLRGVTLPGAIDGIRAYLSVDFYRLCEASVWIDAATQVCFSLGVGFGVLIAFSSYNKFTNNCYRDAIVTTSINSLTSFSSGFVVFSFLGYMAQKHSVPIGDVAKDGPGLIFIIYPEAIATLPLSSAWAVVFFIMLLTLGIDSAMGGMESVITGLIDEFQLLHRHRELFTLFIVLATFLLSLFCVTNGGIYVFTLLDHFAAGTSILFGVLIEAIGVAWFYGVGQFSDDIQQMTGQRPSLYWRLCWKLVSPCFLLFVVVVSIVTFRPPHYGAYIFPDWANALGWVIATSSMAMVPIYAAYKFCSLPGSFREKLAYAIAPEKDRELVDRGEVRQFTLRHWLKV
Experimental: as §3, §4

CysLT1 (LTD4) (h) = molecular target: T5, CysLT1 (LTD4) (h) (Homo sapiens, UniProt Q9Y271); assay: Binding CysLT1 (LTD4) (ag); conditions: read-out: % Inhibition of Control Specific Binding @ 10 μM
T5 construct: expressed in transfected cells; host or cells: CHO cells
T5 sequence (Q9Y271 1-337): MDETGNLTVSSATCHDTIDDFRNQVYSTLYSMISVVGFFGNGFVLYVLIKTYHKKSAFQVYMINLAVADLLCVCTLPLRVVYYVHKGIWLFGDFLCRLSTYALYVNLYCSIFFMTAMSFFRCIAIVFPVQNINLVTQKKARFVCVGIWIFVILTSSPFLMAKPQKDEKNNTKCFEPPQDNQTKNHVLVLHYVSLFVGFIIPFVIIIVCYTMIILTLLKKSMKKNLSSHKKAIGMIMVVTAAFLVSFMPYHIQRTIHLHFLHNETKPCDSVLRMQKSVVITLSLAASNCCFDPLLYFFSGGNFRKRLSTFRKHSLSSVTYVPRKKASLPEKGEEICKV
Experimental: as §3, §4

Cannabinoid CB1 (h) = molecular target: T6, Cannabinoid CB1 (h) (Homo sapiens, UniProt P21554); assay: Binding CB1 (h) (ag); conditions: read-out: % Inhibition of Control Specific Binding @ 10 μM
T6 construct: expressed in transfected cells; host or cells: CHO cells
T6 sequence (P21554 whole entry): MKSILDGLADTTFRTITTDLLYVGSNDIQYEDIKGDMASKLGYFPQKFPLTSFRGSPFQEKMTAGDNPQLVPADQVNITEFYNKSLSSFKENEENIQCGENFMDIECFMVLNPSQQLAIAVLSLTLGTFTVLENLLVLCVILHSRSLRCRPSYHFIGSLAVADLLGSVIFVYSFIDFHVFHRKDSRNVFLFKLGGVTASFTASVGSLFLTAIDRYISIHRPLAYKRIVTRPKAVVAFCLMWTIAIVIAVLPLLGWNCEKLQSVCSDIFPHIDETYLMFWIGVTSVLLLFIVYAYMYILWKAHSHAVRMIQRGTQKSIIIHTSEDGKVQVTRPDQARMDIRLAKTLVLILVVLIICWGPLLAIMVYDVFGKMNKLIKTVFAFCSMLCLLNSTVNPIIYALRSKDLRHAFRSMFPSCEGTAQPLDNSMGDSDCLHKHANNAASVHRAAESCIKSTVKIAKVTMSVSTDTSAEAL
Experimental: as §3, §4

T1 sequence (Q14432 whole entry): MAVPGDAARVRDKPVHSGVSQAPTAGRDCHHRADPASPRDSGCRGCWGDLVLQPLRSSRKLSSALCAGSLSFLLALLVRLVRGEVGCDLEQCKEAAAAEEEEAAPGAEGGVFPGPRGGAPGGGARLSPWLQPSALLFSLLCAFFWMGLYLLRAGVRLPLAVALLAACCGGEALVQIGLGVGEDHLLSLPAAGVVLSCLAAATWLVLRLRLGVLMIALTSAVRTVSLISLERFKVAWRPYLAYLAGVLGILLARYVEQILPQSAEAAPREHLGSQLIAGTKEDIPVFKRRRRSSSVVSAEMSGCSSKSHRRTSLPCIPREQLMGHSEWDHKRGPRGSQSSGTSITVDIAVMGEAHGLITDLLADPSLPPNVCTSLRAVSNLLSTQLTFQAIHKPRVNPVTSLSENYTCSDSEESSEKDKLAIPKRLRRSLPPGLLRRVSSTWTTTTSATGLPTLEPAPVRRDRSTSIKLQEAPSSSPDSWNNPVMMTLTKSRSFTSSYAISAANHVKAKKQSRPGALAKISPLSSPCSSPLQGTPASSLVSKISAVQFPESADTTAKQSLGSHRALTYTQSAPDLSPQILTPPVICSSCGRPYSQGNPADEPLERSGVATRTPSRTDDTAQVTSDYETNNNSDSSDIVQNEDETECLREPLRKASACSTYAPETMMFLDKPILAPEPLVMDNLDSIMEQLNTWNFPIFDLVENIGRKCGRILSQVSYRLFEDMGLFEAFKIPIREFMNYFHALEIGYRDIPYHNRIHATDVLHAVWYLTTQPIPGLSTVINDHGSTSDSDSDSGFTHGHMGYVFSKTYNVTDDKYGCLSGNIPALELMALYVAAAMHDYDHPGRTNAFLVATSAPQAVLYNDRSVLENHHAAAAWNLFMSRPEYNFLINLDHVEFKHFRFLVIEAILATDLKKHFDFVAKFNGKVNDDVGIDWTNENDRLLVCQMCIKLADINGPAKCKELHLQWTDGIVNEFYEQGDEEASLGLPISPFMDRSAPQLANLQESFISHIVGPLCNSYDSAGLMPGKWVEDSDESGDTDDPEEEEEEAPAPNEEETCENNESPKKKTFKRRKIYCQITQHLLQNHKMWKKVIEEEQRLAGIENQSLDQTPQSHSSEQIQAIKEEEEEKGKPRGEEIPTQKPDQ

SMILES	inhibition at 10 µM (PDE3A (h)) [%]	inhibition at 10 µM [1] [%]	% Stimulation Relative to Control @ 10 μM (guanylyl cyclase (basal)) [%]	% Inhibition of Control Specific Binding @ 10 μM [2] [%]	inhibition at 10 µM (dopamine transporter (h)) [%]	inhibition at 10 µM (CysLT1 (LTD4) (h)) [%]	inhibition at 10 µM (Cannabinoid CB1 (h)) [%]
CC1(C)C(=O)N(c2ccc(C#N)c(C(F)(F)F)c2)C(=S)N1c1ccc(C(=O)O)c(F)c1 [(MI), 4-(3-(4-cyano-3-(trifluoromethyl)phenyl)-5,5-dimethyl-4-oxo-2-thioxoimidazolidin-1-yl)-2-fluorobenzoic acid]	3	-10	0	−2	32	3	-20
CC1(C)C(=O)N(c2ccc(C#N)c(C(F)(F)F)c2)C(=S)N1c1ccc(C(N)=O)c(F)c1 [(MII), 4-(3-(4-Cyano-3-(trifluoromethyl)phenyl)-5,5-dimethyl-4-oxo-2-thioxoimidazolidin-1-yl)-2-fluorobenzamide]	0	-18	0	−13	23	18	11
CC1(C)C(=O)N(c2ccc(C#N)c(C(F)(F)F)c2)C(=O)N1c1ccc(C(N)=O)c(F)c1 [(MIII), 4-(3-(4-cyano-3-(trifluoromethyl)phenyl)-5,5-dimethyl-2,4-dioxoimidazolidin-1-yl)-2-fluorobenzamide]	4	-18	−1	−1	13	11	6
CNC(=O)c1ccc(N2C(=O)N(c3ccc(C#N)c(C(F)(F)F)c3)C(=O)C2(C)C)cc1F [(MIV), 4-(3-(4-cyano-3-(trifluoromethyl)phenyl)-5,5-dimethyl-2,4-dioxoimidazolidin-1-yl)-2-fluoro-N-methylbenzamide]	2	-12	2	−5	7	11	4
